The values that follow come from patent US20260071220A1, “CONJUGATE OF NUCLEOTIDE ANALOG-CONTAINING DOUBLE-STRANDED RNAI ANALOG” (BaseCure Therapeutics LLC, priority 2022, published 2026).

A word on the CC50: it is the concentration that lowers cell viability or growth by half. Usually EC50 stands for the concentration giving half of the maximal effect. A low value points to a more potent agent.

Where “and” joins values, the source holds several entries; their conditions need not be identical. Equal entries are not always repeated. In the oligonucleotide strings, read from the 5' end, every base follows the letter of its sugar. An asterisk marks phosphorothioate; unmarked linkages are phosphodiester. Other units and linkages are bracketed, terminal groups are in braces. A string of capitals states the bases alone. {D01} = GalNAc ligand D01, attached to sense strand by a phosphodiester bond; m = 2'-O-methyl; f = 2'-fluoro

The subject of one data set is AGT mRNA. The data set is described as follows: Mouse hAGT HDI model (liver AGT mRNA). The format is in vivo. The settings on record: 5 mg/kg single s.c. dose, liver on Day 4; for AGT mRNA expression of mouse liver after administration/before administration, Average: group average (4 mice); for AGT mRNA expression of mouse liver after administration/before administration: individual animal, 5 mg/kg. How it is done:
The targeting of a target gene in a sample to be tested and the inhibitory effect on the target gene were evaluated by a mouse model injected with pcDNA-CMV-AGT plasmids via tail vein at high pressure.
pcDNA-CMV-AGT plasmids, BALB/c female mice, DPBS (Dulbecco's phosphate buffer solution), and a conjugate of the present invention.
6 to 8-week-old BALB/c female mice were purchased, and the mice were adapted to quarantine for one week after arriving at an animal room.
On Day 0, the mice were divided into groups at random according to weight data, with 4 mice in each group, all the mice were dosed subcutaneously after grouping, with a single dose at 10 mL/kg. The mice in group 1 were dosed with DPBS; the mice in group 2 were dosed with AD-85481 at the dose of 5 mg/kg; the mice in group 3 were dosed with the conjugate 3 of the present invention at the dose of 5 mg/kg; the group 4 was dosed with the conjugate 2 of the present invention at the dose of 5 mg/kg.
On Day 3 after administration, all the mice were injected with the pcDNA-CMV-AGT plasmids at a volume of 8% of their weight via the tail vein within 5 s (injection volume (mL)=mouse weight (g)×8%). The mass of the plasmids injected into each mouse was 10 μg.
On Day 4 after administration, all groups of mice were euthanized by CO2 inhalation, and 2 liver samples were collected from each mouse. The liver samples were treated with RNAlater at 4° C. overnight, then RNAlater was removed, and subsequently the samples without RNAlater were stored at −80° C. for detecting the expression level of AGT genes.
4. In the table, the data represent AGT mRNA expression of mouse liver after administration/AGT mRNA expression of mouse liver before administration, […]

A further data set concerns HEK BLUE hTLR7. The data set is described as follows: Cell activity detection (CellTiter-Glo) in hTLR7 cells. The format is cell-based, human. The settings on record: 24 h, maximum concentration 200 nM, read-out: CC50. How it is done:
(§1) 1) The conjugate of the present invention was diluted to a concentration that was 20 times a final concentration, the diluted conjugate was mixed with RNAiMAX-OPTI MEM (RNAiMAX:OPTI MEM=3:47) at a ratio of 1:1 and incubated for 15 min at room temperature.
(§2) 2) 10 μL of incubated conjugate of the present invention was added into a corresponding cell plate, with 10 concentrations in total, a maximum concentration being 200 nM, and double duplicated wells for each concentration.
4) 90 μL of cells were seeded into a 96-well plate with the conjugate at the density of 50,000 cells/well.
5) The conjugate of the present invention and the cells were co-incubated for 24 h in an incubator under the conditions of 37° C. and 5% CO2.
8) Cell activity detection: the operation was carried out according to the method in the Celltiter-Glo specification, and a chemiluminescence signals (RLU) were detected using the multifunctional microplate reader Flexstation III.
Compound activity: the OD650 values were analyzed using GraphPad Prism software, and a dose effect curve of the compound was fit, and the EC50 value of the compound was calculated. Cell activity detection: the calculation formula of cell activity % was as follows. The cell activity % value was analyzed using GraphPadPrism software, the dose effect curve of the compound was fit, and the CC50 value of the compound on cell was calculated.

The target of another data set is T1, hTLR7 (Homo sapiens, UniProt Q9NYK1).
T1 construct: host or cells: HEK BLUE hTLR7 (HEK293-derived SEAP reporter line)
T1 sequence (Q9NYK1 27-1049): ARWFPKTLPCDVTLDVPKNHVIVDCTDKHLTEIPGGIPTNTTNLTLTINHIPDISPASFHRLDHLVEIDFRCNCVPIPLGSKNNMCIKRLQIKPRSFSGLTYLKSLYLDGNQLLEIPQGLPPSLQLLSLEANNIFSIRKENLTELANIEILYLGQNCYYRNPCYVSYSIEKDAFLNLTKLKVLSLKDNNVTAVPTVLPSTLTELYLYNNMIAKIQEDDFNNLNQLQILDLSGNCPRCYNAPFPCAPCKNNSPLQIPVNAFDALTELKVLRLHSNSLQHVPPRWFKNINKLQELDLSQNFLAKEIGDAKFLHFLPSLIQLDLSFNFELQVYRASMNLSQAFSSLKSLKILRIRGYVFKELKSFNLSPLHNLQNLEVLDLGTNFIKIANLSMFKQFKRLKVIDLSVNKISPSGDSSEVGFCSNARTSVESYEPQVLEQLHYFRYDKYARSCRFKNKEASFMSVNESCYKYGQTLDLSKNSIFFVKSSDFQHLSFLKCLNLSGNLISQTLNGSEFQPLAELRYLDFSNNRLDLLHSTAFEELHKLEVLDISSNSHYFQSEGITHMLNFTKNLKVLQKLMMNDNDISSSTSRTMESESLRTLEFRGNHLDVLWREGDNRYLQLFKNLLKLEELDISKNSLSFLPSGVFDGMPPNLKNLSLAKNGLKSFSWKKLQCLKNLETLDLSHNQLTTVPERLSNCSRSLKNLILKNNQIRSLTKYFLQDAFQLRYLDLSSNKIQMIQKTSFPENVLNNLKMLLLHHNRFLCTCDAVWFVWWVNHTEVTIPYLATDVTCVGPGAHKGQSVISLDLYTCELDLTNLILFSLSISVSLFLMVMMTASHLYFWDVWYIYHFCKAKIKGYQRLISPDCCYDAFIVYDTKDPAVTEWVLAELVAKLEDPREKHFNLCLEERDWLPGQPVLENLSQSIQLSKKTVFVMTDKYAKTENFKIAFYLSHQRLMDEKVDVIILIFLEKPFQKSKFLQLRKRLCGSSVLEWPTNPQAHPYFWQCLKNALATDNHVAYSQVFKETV
The data set is described as follows: Agonistic activity on hTLR7 cells (HEK BLUE, QUANTI-Blue OD650). It is filed as cell-based. The following applies: 24 h, transfection with RNAiMAX, maximum concentration 200 nM. How it is done: as §1, §2
10 μL of 0.5 μM BLOCK-iT™ Alexa Fluor® Red Fluorescent Control was added into 2 transfection positive control wells.
4) 90 μL of cells were seeded into a 96-well plate with the conjugate at the density of 50,000 cells/well. […]
7) Compound activity detection: 20 μL of cell supernatant was taken from each well and added into an experimental plate containing 180 μL of QUANTI-Blue™ reagent and then incubated for 1 h at 37° C., followed by detecting an absorbance values at 650 nm (OD650) using the multifunctional microplate reader Flexstation III.
Compound activity: the OD650 values were analyzed using GraphPad Prism software, and a dose effect curve of the compound was fit, and the EC50 value of the compound was calculated. […] The cell activity % value was analyzed using GraphPadPrism software, the dose effect curve of the compound was fit, and the CC50 value of the compound on cell was calculated.

As for “Conjugate 3: Double-stranded RNAi analog against AGT, D01 GalNAc ligand on sense strand; sense SEQ ID NO: 7, antisense SEQ ID NO: 2 containing Z (sense mA*mU*fCfCmAfCfAfAmUmGmAfGmAmGmUmAmCmA-{D01}; antisense CUCACAUGUACNCUCAUUGUGGAUGACGA; antisense: chemistry not given here; antisense strand modified, includes nucleotide analog Z, further chemistry not fully specified)”, in the data set on AGT mRNA, the “AGT mRNA expression of mouse liver after administration/before administration, Average” value was 3%; the “AGT mRNA expression of mouse liver after administration/before administration” value is 3% (2×) and 2% (2×). For the same substance, in the data set on HEK BLUE hTLR7, the CC50 was above 0.2 µM. The same substance had a concentration giving a half-maximal response (EC50) with hTLR7 above 0.2 µM.

As for “Conjugate 2: Double-stranded RNAi analog against AGT, D01 GalNAc ligand on sense strand; sense SEQ ID NO: 6, antisense SEQ ID NO: 2 containing Z (sense mA*mU*fCfCmAfCfAfAmUmGmAmGmAfGmUmAmCmA-{D01}; antisense CUCACAUGUACNCUCAUUGUGGAUGACGA; antisense: chemistry not given here; antisense strand modified, includes nucleotide analog Z, further chemistry not fully specified)”, in the data set on AGT mRNA, the “AGT mRNA expression of mouse liver after administration/before administration, Average” value is reported as 3%; the “AGT mRNA expression of mouse liver after administration/before administration” value is 2% (2×) and 3% and 4%. The CC50 with HEK BLUE hTLR7 was above 0.2 µM. Further, in the data set with hTLR7, the EC50 was above 0.2 µM.
